Results: US20220326218A1, “COMPOSITION AND METHOD FOR INHIBITING BORC COMPLEX TO TREAT CANCERS WITH NF1 DEFICIENCY AND DYSREGULATED RAS SIGNALING” (THE TRUSTEES OF DARTMOUTH COLLEGE, priority 2019, published 2022)

Assays:
Type in all cases: cell-based, human
U87-MG cells = experiment: Hoechst cell death viability assay, U87-MG
Description: (§1) Cells were plated at 2,500 cells/well in 96-well plates and allowed to adhere overnight. Medium was removed and replaced with media containing compound starting at 100 μM, followed by 2-fold serial dilutions to generate a 10-point range of concentrations normalized with DMSO; one row was treated with DMSO as a control. Cells were incubated for the indicated timepoints. Upon collection, media was removed, cells were rinsed with PBS, and stored at −80° C. until all plates were collected. To process cells, plates were thawed with PBS, incubated with 1× saline-sodium citrate (SSC) buffer with 0.02% sodium dodecyl sulfate (SDS) for 1 hour at 37° C., followed by staining with 1 μg/mL Hoechst 33258 (Pierce). […] using a Spectramax M2 at an excitation of 355 nm and an emission of 460 nm, and absorbance was normalized to DMSO. Each experiment was repeated 2-3 times with 4 technical replicates per experiment.

sNF96.2 cells = experiment: Hoechst cell death viability assay, sNF96.2; conditions: sNF96.2 MPNST cells, up to 3 days, 100 μM to 0.039 μM, Hoechst 33258
Description: as §1

γ-H2AX = experiment: Immunofluorescence staining for DNA damage marker γ-H2AX; conditions: U87-MG, 2 μM, 24 h
Description: (§2) U87-MG cells were plated at a concentration of 50,000 cells/well onto precoated poly-D-lysine (PDL) coverslips (Neuvitro) in 24-well plates (Falcon) and allowed to adhere overnight. Medium was removed and replaced with treatment-laced media normalized to DMSO, and cells were treated for the indicated timepoints. At the time of collection, cells were washed with PBS and fixed with 4% paraformaldehyde without methanol (EMS) or 100% methanol (Fischer). Coverslips were washed with Tween20-containing PBS (PBST; Fischer). Following permeabilization with 0.5% Triton X-100 in PBS (Fischer), coverslips were blocked for 1 h at room temperature in IF Buffer (0.05% azide, 0.2% Triton X-100, 2% Normal Goat Serum or, for 8-OHG, Normal Donkey Serum). The following primary antibodies were used for 1 hour at room temperature unless specified: AlexaFluor 488 pre-conjugated anti-γ-H2AX (N1-431) mouse monoclonal (30 minutes; BD Biosciences), anti-cleaved caspase 3 (Asp175) rabbit polyclonal (Cell Signaling), anti-SQSTM1/p62 (D-3) mouse monoclonal (Santa Cruz), anti-8-Hydroxyguanosine goat polyclonal (1:200; Millipore), anti-LAMP1 (D4O1S) mouse monoclonal (O/N at 4° C.; Cell Signaling), anti-BNIP3L/Nix (D4R4B) rabbit monoclonal (O/N at 4° C.; Cell Signaling), anti-FLAG (M2) mouse monoclonal (2 hours at 37° C.; Sigma-Aldrich). […]

PARP = experiment: Western immunoblotting for PARP; conditions: U87-MG
Description: (§3) U87-MG cells were plated at 500,000 cells/well in 6-well plates and allowed to adhere overnight (Falcon). Medium was removed and replaced with fresh medium containing drugs or compounds for the indicated timepoints. Cells were collected after treatment by washing with PBS, harvested with trypsin plus agitation to detach cells, pelleted in a centrifuge and resuspended in PBS to wash. Cells were transferred to 1.5 mL microcentrifuge tubes, pelleted, and resuspended in RIPA lysis buffer (50 mM Tris pH 8.0, 150 mM NaCl, 1% nonidet P40, 0.5% sodium deoxycholate, and 0.05% SDS) containing 1 mM NaVO4, 1 mM NaF, 1 mM phenylmethylsulfonyl fluoride, 0.1 μg/mL antipain, 1 μM aprotinin, 100 μM benzamidine HCl, 0.1 μg/mL leupeptin, 0.1 μg/mL pepstatin, and 0.1 μg/mL soybean trypsin inhibitor. Protein was quantified using a BCA assay kit (Pierce). 50 μg of protein was prepared in 1× Laemmli sample buffer (50 mM Tris pH 6.8, 0.02% w/v bromophenol blue, 2% w/v SDS, 10% v/v glycerol, 1% v/v beta-mercaptoethanol, 12.5 mM EDTA) and separated by SDS-PAGE on a 4-15% polyacrylamide gradient gel (Bio-Rad). […]

p62 = experiment: Western immunoblotting of autophagy marker p62; conditions: U87-MG, 12 h treatment +/- 12 h HCQ
Description: as §3

LC3-II = experiment: Western immunoblotting of autophagy marker LC3-I/II; conditions: U87-MG, 12 h treatment +/- 12 h HCQ co-treatment, total 24 h
Description: as §3

lysosomes = experiment: Immunofluorescence staining of lysosomes (LAMP1) and mitochondria (Tom20); conditions: U87-MG, 2 μM, 16 h
Description: as §2, with “Sigma-Aldrich). Following washes with PBST, cells were stained with goat anti-rabbit or goat anti-mouse AlexaFluor 488 or AlexaFluor 594 (or, for 8-OHG, donkey anti-goat AlexaFluor 488) secondary antibody at 1:800 for 1 hour at room temperature (Jackson ImmunoResearch).” for “Sigma-Aldrich).”
All confocal images were acquired on a Nikon AIRSi confocal microscope equipped with a 60× 1.4 NA oil objective, a DU4 detector unit, and Nikon Elements software. Otherwise, images were acquired on a Zeiss Axio Imager.Z1 equipped with a Zeiss EC Plan-NEOFLUAR 40× 1.3 NA oil objective, a Zeiss AxioCam MRm camera, a Lumen Dynamics Series 120 Q X-Cite Fluorescence Illuminator, and AxioVision SE64 Rel. […]

Cn1cnnc1S/C=C/C(=O)c1ccc(F)cc1 [Y102]
growth inhibition, acute treatment of 2 hours compared to continuous treatment for 72 hours (U87-MG cells): same degree of growth inhibition
reversibility of effects after a 2 hour treatment (U87-MG cells): irreversible
concentration from which cell proliferation was inhibited (U87-MG cells; continuous treatment, seven days, normalized to day zero plating): ≥ 3.125 µM
sensitivity of NF1-deficient cell line to treatment (U87-MG cells; up to 7 days, 100 μM to 0.039 μM, Hoechst 33258): sensitive
sensitivity of NF1-deficient cell line to treatment (sNF96.2 cells): sensitive
change in γ-H2AX expression (γ-H2AX): no significant change
PARP western immunoblotting as check of absent caspase-3-mediated apoptosis (PARP): confirmed
p62 expression (western immunoblotting) (p62): increased
LC3-II accumulation (western immunoblotting) (LC3-II): did not result in LC3-II accumulation
localization of lysosomes (lysosomes; LAMP1): perinuclear region
lysosome expression (lysosomes; LAMP1): increase
colocalization between lysosomes and mitochondria (lysosomes; LAMP1/Tom20, ratiometric analysis, confocal): observed
